Test results published in ChEMBL document CHEMBL4622883, “Bisbenzylisoquinoline alkaloids and P-glycoprotein function: A structure activity relationship study” (Bioorg Med Chem, 2020).

How the values were obtained:
Assay type in all cases: cell-based; call rule not given here
[1] = biological target: T1, ATP-dependent translocase ABCB1 (Homo sapiens, UniProt P08183); assay: Inhibition of P-glycoprotein-mediated Rhodamine-123 efflux in human MOLT4/DNR cells assessed as inhibition of P-glycoprotein efflux function at 1 uM incubated for 1 hr by flow cytometry
[2] = biological target: T1, ATP-dependent translocase ABCB1; assay: Inhibition of P-glycoprotein-mediated Rhodamine-123 efflux in human MOLT4/DNR cells assessed as inhibition of P-glycoprotein efflux function at 10 uM incubated for 1 hr by flow cytometry
[3] = biological target: T1, ATP-dependent translocase ABCB1; assay: Inhibition of P-glycoprotein-mediated Rhodamine-123 efflux in human MOLT4/DNR cells assessed as inhibition of P-glycoprotein efflux function at 0.3 uM incubated for 1 hr by flow cytometry
[4] = biological target: T1, ATP-dependent translocase ABCB1; assay: Inhibition of P-glycoprotein-mediated Rhodamine-123 efflux in human MOLT4/DNR cells assessed as Rhodamine-123 accumulation incubated for 1 hr by flow cytometry

T1 sequence (P08183 whole entry): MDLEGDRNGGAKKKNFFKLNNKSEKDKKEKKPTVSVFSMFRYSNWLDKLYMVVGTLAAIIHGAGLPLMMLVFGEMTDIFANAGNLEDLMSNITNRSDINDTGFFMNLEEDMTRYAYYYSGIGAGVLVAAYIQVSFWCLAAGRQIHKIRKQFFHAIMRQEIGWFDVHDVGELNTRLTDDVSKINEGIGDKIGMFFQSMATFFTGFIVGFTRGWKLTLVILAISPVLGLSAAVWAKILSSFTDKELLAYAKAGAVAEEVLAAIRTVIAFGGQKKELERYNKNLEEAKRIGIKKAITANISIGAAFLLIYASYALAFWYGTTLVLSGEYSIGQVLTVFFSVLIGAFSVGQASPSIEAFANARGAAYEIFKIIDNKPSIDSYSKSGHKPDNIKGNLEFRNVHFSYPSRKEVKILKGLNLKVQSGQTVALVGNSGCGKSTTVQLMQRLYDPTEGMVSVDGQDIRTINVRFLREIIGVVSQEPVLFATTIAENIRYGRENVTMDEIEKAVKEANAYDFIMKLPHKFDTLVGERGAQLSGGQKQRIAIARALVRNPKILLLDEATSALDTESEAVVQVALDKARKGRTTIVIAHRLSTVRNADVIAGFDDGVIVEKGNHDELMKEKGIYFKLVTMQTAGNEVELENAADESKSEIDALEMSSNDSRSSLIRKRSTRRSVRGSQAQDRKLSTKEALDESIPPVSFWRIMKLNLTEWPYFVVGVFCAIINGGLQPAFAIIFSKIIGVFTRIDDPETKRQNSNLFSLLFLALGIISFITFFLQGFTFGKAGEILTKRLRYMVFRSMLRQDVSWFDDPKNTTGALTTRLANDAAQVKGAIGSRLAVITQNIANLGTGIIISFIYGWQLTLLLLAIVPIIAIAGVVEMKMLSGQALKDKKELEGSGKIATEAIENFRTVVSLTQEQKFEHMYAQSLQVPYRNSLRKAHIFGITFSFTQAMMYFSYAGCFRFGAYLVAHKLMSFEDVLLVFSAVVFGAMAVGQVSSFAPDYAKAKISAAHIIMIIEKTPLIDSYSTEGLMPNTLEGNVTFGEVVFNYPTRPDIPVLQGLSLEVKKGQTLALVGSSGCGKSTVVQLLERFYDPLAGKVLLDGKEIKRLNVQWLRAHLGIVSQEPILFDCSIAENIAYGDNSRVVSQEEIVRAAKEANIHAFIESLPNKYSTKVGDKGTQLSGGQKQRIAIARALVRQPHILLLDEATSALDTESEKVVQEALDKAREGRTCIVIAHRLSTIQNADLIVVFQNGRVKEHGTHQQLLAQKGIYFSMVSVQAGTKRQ

| Compound | inhibition (INH) [1] | inhibition (INH) [2] | inhibition (INH) [3] | inhibition (INH) [4] |
| --- | --- | --- | --- | --- |
| COc1ccc2cc1Oc1ccc(cc1)C[C@H]1c3c(cc4c(c3Oc3cc5c(cc3OC)CCN(C)[C@@H]5C2)OCO4)CCN1C [CEPHARANTHINE] | Not Active | Active |  |  |
| COc1ccc2cc1Oc1ccc(cc1)C[C@H]1c3cc(c(OC)cc3CCN1C)Oc1c(OC)c(OC)cc3c1[C@@H](C2)N(C)CC3 | Not Active | Active | Not Active |  |
| COc1cc2c(cc1OC)[C@@H](Cc1ccc(Oc3cc(C[C@@H]4c5cc(OC)c(OC)cc5CCN4C)ccc3O)cc1)N(C)CC2 [DAURICINE] |  | Active |  |  |
| COc1ccc2cc1Oc1ccc(cc1)C[C@H]1c3cc(c(OC)cc3CCN1C)Oc1c(OC)c(OC)cc3c1[C@H](C2)N(C)CC3 [FANCHININ] | Active | Active | Active | Dose-dependent effect |
| COc1ccc2cc1Oc1ccc(cc1)C[C@H]1c3cc(c(OC)cc3CCN1C)Oc1c(O)c(OC)cc3c1[C@H](C2)N(C)CC3 [FANGCHINOLINE] | Not Active | Active |  |  |
| COc1cc2c3cc1Oc1c(OC)c(OC)cc4c1[C@@H](Cc1ccc(O)c(c1)Oc1ccc(cc1)C[C@@H]3N(C)CC2)N(C)CC4 [BERBAMINE] | Not Active | Active | Not Active |  |
| COc1cc2c(cc1OC)[C@@H](Cc1ccc(O)cc1)N(C)CC2 |  | Active |  |  |
